# Active and inactive are the calls of the source. The calls are words filed in the database; no cut-off is given here.
# Columns and labels:
# Homo sapiens [1] = species on record: Homo sapiens; test: Selectivity ratio of IC50 for human HDAC10 to IC50 for human HDAC6
# [2] = Metabolic stability in Sprague-Dawley rat hepatocyte assessed as parent compound remaining at 10 uM by LC-MS/MS analysis; format: ADME, cell-based; conditions: hepatocytes, read-out: Stability
# [3] = Metabolic stability in Sprague-Dawley rat hepatocyte assessed as parent compound remaining at 10 uM incubated for 30 mins by LC-MS/MS analysis; format: ADME, cell-based; conditions: hepatocytes, read-out: Stability
# Histone deacetylase 8 = target: T1, Histone deacetylase 8 (Homo sapiens, UniProt Q9BY41); test: Inhibition of human HDAC8 (379 to 382 residues) using RHKAcKAc as flurogenic substrate
# T1 sequence (Q9BY41 whole entry): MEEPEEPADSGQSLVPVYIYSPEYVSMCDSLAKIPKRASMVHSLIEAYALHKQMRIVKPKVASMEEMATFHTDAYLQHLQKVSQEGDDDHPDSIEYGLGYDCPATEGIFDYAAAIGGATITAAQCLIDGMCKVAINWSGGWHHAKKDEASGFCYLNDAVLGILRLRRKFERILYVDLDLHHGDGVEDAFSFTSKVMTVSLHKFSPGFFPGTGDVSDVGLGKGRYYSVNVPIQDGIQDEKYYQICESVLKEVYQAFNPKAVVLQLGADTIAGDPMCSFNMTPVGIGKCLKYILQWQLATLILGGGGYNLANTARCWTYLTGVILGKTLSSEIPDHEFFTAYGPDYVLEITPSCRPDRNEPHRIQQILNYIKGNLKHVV
# [4] = target: T2, Protein deacetylase HDAC6 (Homo sapiens, UniProt Q9UBN7); test: Inhibition of human HDAC6 (379 to 382 residues) using RHKKAc as flurogenic substrate
# T2 sequence (Q9UBN7 whole entry): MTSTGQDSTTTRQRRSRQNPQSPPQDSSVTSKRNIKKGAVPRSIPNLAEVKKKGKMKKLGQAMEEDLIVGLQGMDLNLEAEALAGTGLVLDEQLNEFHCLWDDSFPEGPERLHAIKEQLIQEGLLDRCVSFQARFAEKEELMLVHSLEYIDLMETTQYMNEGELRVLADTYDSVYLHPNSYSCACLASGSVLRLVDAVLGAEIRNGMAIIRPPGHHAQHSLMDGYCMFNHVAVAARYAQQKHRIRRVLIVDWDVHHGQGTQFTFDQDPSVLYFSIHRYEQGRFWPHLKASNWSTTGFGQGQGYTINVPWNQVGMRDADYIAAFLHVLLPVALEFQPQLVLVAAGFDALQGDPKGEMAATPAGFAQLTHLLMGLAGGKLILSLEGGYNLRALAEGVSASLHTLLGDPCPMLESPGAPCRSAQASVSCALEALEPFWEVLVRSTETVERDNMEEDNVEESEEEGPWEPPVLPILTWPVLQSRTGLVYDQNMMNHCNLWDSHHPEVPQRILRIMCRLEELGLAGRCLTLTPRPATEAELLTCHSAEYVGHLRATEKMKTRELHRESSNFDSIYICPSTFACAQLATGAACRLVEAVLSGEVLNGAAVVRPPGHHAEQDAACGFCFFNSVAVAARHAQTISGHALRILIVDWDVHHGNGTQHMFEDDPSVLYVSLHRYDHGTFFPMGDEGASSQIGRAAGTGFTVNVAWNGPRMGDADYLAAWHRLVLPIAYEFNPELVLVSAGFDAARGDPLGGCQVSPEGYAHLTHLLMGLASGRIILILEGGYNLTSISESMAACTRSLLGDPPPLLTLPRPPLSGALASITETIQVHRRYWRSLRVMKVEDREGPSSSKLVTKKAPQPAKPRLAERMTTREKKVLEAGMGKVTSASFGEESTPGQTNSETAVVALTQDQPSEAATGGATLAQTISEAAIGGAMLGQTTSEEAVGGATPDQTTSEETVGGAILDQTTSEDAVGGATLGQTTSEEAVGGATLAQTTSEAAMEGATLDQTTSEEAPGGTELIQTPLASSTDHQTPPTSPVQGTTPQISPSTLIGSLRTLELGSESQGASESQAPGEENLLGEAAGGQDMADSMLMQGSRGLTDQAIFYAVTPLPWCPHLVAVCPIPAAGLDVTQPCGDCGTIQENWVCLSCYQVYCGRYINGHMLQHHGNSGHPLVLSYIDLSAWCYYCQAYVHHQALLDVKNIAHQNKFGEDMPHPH
# [5] = Metabolic stability in Beagle dog hepatocyte assessed as parent compound remaining at 10 uM incubated for 30 mins by LC-MS/MS analysis; format: ADME, cell-based, Canis lupus familiaris; conditions: hepatocytes, read-out: Stability
# DU-145 [6] = test: Antiproliferative activity against human DU-145 cells assessed as cell growth inhibition incubated for 48 hrs by MTT assay; format: functional
# DU-145 [7] = test: Antitumor activity against human DU-145 cells xenografted in athymic nude mouse assessed as tumor growth inhibition at 50 mg/kg, po qd measured upto 60 days by caliper method relative to control; format: functional; conditions: DU-145, 1440 h, time <= 60 day, read-out: TGI
# [8] = Metabolic stability in Sprague-Dawley rat hepatocyte assessed as intrinsic clearance at 10 uM by LC-MS/MS analysis; format: ADME, cell-based; conditions: hepatocytes, read-out: CLH
# [9] = Oral bioavailability in Sprague-Dawley rat at 25 mg/kg administered once via gavage measured upto 24 hrs post dose by UPLC-MS/MS analysis; format: ADME, organism-based; conditions: in vivo
# [10] = AUC (0 to 24 hrs) in Sprague-Dawley rat at 25 mg/kg, po formulated using SMEDDS administered once via gavage measured upto 24 hrs post dose by UPLC-MS/MS analysis; format: ADME, organism-based; design: dose 25 mg/kg, time < 24 hrs, route po; conditions: in vivo
# PC-3 [11] = test: Induction of cell death in LSD1 knockdown human PC-3 cells assessed as activation of procaspase-9 at 1.25 to 10 uM by Western blot analysis; format: functional, cell-based; conditions: dose 1.25-10 µM
# [12] = Cmax in Sprague-Dawley rat at 25 mg/kg, po administered once via gavage measured upto 24 hrs post dose by UPLC-MS/MS analysis; format: ADME, organism-based; design: dose 25 mg/kg, time < 24 hrs, route po; conditions: in vivo
# PC-3 [13] = test: Induction of apoptosis in human PC-3 cells at 1.25 to 10 uM incubated for 48 hrs by Western blot analysis; format: functional, cell-based; conditions: dose 1.25-10 µM
# [14] = Metabolic stability in human hepatocyte assessed as parent compound remaining at 10 uM incubated for 60 mins by LC-MS/MS analysis; format: ADME, cell-based; conditions: hepatocytes, read-out: Stability
# PC-3 [15] = test: Upregulation of acetyl-histone H3 in human PC-3 cells at 0.625 to 5 uM by Western blot analysis; format: functional, cell-based; conditions: dose 0.625-5 µM
# [16] = Metabolic stability in human hepatocyte assessed as parent compound remaining at 10 uM incubated for 240 mins by LC-MS/MS analysis; format: ADME, cell-based; conditions: hepatocytes, read-out: Stability
# Homo sapiens [17] = species on record: Homo sapiens; test: Selectivity ratio of IC50 for human HDAC9 to IC50 for human HDAC6
# DU-145 [18] = test: Antitumor activity against human DU-145 cells xenografted in athymic nude mouse assessed as tumor growth inhibition at 200 mg/kg, po administered twice daily and measured upto 60 days by caliper method relative to control; format: functional; conditions: DU-145, 1440 h, time <= 60 day, read-out: TGI
compound,measurement,setting,value
C#CCN(C)Cc1cccc(NC(=O)CCCCCCC(=O)NO)c1,Ratio IC50,Homo sapiens [1],18.7
same,remaining at 10 µM,[2],100%
same,"remaining at 0.5 h, 10 µM",[3],72.2%
same,IC50,Histone deacetylase 8,0.21 µM
same,IC50,[4],0.02 µM
same,"remaining at 0.5 h, 10 µM",[5],91.6%
same,GI50,DU-145 [6],0.42 µM
same,inhibition in vivo at 50 mg/kg,DU-145 [7],65.8%
same,CLint scaled at 10 µM,[8],90.2 mL/min/kg
same,bioavailability,[9],11.8%
same,AUC(0-t) at 24 h,[10],587 ng·h/mL
same,Activity,PC-3 [11],Active
same,Cmax,[12],74.1 ng/mL
same,Activity,PC-3 [13],Active
same,"remaining at 1 h, 10 µM",[14],102%
same,Activity,PC-3 [15],Active
same,"remaining at 4 h, 10 µM",[16],83.3%
same,Ratio IC50,Homo sapiens [17],> 500
same,inhibition in vivo at 200 mg/kg,DU-145 [18],80.8%

# Source: ChEMBL document CHEMBL5096208, “Installation of Pargyline, a LSD1 Inhibitor, in the HDAC Inhibitory Template Culminated in the Identification of a Tractable Antiprostate Cancer Agent” (J Med Chem, 2021)
